SMILES strings stand for the structures.

Test [1] relates to Hedgehog signalling (Gli1 mRNA). Nature of the test: Hedgehog signalling assay using quantitative RT-PCR (Gli1 mRNA in NIH/3T3 cells). The class given is cell-based. Particulars: sterol treatment ~16 hours, different concentrations (FIG. 6, 7). The procedure:
NIH/3T3 cells were grown to confluency in Dulbecco's Modified Eagle's Medium (DMEM) containing 10% Fetal Bovine Serum (FBS, Optima Grade, Atlanta Biologicals). Confluent cells were exchanged into 0.5% FBS DMEM for 24 hours to allow ciliogenesis prior to treatment with sterols in DMEM containing 0.5% FBS for ˜16 hours. SHH protein carrying a C-terminal hexa-histidine tag was expressed in bacteria and purified as described previously [Bishop Nat Struct Mol Biol 2009]. The mRNA levels of Gli1, a direct Hh target gene commonly used as a metric for signalling strength, were measured using the Power SYBR Green Cells-To-CT kit (Thermo Fisher Scientific). The primers used are Gli1 (forward primer: 5′-[…]-3′ and reverse primer: 5′-[…]-3′), Gapdh (forward primer: 5′-[…]-3′ and reverse primer: 5′-[…]-3′). Transcript levels relative to Gapdh were calculated using the Δelta-Ct method. Each qRT-PCR experiment, which was repeated twice, included two biological replicates, each with two technical replicates.

In another test the test system is Smoothened (Smo). The following applies: from the literature (Myers Dev Cell 2013; Corcoran PNAS 2006; Nachtergaele Nat Chem Bio 2012); cited from earlier work.

Consider `C[C@H](CCC(=O)O)[C@H]1CC[C@H]2[C@@H]3C(=O)C=C4C[C@@H](O)CC[C@]4(C)[C@H]3CC[C@]12C` [Compound XXI, 3β-Hydroxy-7-oxochol-5-en-24-oic acid], for which the “effect on Hedgehog signalling (mRNA levels of Gli1)” value in test [1] is given as “inhibitor of Hedgehog signalling”.
Turning to `C[C@H](CCCC(C)(C)O)[C@H]1CC[C@H]2[C@@H]3C(=O)C=C4C[C@@H](O)CC[C@]4(C)[C@H]3CC[C@]12C` [Compound XXII, 3β,25-dihydroxycholest-5-en-7-one], the “activation of Smo” value in the test on Smoothened (Smo) is recorded as “activators of Smo”.
Turning to `C[C@@H](CO)CCC[C@@H](C)[C@H]1CC[C@H]2[C@@H]3C(=O)C=C4C[C@@H](O)CC[C@]4(C)[C@H]3CC[C@]12C` [Compound XX, 3β,26-Dihydroxycholest-5-en-7-one], the “activation of Smo” value in the test on Smoothened (Smo) is listed as “activators of Smo”. Moreover, the “effect on Hedgehog signalling (mRNA levels of Gli1)” value in test [1] is listed as “activator of Hedgehog signalling”.
On to `CC(C)CCC[C@](C)(O)[C@H]1CC[C@H]2[C@@H]3CC=C4C[C@@H](O)CC[C@]4(C)[C@H]3CC[C@@]21C` [20S-Hydroxycholesterol, reference compound], for which, in the test on Smoothened (Smo), the “activation of Smo” value was “activate Smo in vitro”.

Source of the values: patent US20210041466A1, “DIAGNOSTIC METHODS AND KITS” (Cholestenix Limited, priority 2015, published 2021).
